{"source": "paper PMC11344848", "about": "“Proximity-driven site-specific cyclization of phage-displayed peptides” (Nature Communications, 2024)", "experiment": "N-terminal-to-internal Cys bridging with heterobifunctional cyclopropenone-chloroacetamide linker (CCA): DTT reduction, cyclopropenone condensation with N-terminal Cys 1,2-aminothiol (1,4-thiazepan-5-one), then proximity-driven intramolecular thioether formation between internal Cys thiol and chloroacetamide", "settings": "the molecule shown is the open-chain precursor, PBS pH 7.4, 5% DMSO, 0.01 mM, 25.0 °C, 2.0 h, 2 steps", "data": [{"compound": "N=C(N)NCCC[C@H](NC(=O)[C@@H]1CCCN1C(=O)[C@H](CS)NC(=O)[C@H](CC(N)=O)NC(=O)[C@H](CCC(N)=O)NC(=O)[C@H](Cc1ccccc1)NC(=O)[C@H](Cc1ccc(O)cc1)NC(=O)[C@@H]1CSCC(CCCC(=O)N2CCN(C(=O)CCl)CC2)C(=O)N1)C(=O)NCC(N)=O", "note": "(stereo partly drawn) [H-CYFQNCPRG-NH2]", "values": [{"measurement": "ring closure, conversion by HPLC", "setting": "31-membered ring", "value": "> 95", "unit": "%"}]}, {"compound": "H-CGGSGGC-[WLAAA-D1/D2 pIII fusion]", "values": [{"measurement": "ring closure, conversion by HPLC", "setting": "34-membered ring", "value": 100, "unit": "%"}]}, {"compound": "H-CGSGGSGC-[AAA-D1/D2 pIII fusion]", "values": [{"measurement": "ring closure, conversion by HPLC", "setting": "37-membered ring", "value": 100, "unit": "%"}]}, {"compound": "H-CPEGYILDDGFCTDIDE-[D1/D2 pIII fusion]", "values": [{"measurement": "ring closure, conversion by HPLC", "setting": "49-membered ring", "value": 100, "unit": "%"}]}, {"compound": "H-CQPHPGQTC-[AAA-D1/D2 pIII fusion]", "values": [{"measurement": "ring closure, conversion by HPLC", "setting": "40-membered ring", "value": 100, "unit": "%"}]}, {"compound": "H-CYKLAEGDKYYIC-[D1/D2 pIII fusion]", "values": [{"measurement": "ring closure, conversion by HPLC", "setting": "52-membered ring", "value": 100, "unit": "%"}]}]}
